The values below come from patent US20240148833A1, “COMPOSITION COMPRISING GLP-1 RECEPTOR AGONIST AND ACAT INHIBITOR” (EFIL BioScience Inc., priority 2022, published 2024).

Like-named read-outs stand apart in the source and are kept apart here.

Experiment [1] is described as follows: Cohort 2: histological measurement of adipocyte size in inguinal fat pad (H&E). Type of experiment: in vivo, male C57BL/6 mice. The note with it: sc every three days for 23 days. How it is done: (§1) Cohort 2: The second set of animal experiments were conducted according to a protocol approved by the Purdue Animal Care and Use Committee (protocol number: 11129000347). Male C57BL/6 DIO mice were purchased from Jackson Laboratory. After 8-week HF diet feeding, mice were randomly assigned to the same groups as cohort 1: control, avasimibe, semaglutide, and combination groups. Avasimibe (20 mg/kg BW) and semaglutide (0.04 mg/kg BW) were prepared in the method used with regard to Cohort 1, and the drugs were sc injected every three days for 23 days. Mice were kept on a 12/12 h light/dark cycle in a humidity and temperature control facility with ad libitum access to food and water.
During animal sacrifice, adipose tissues were rinsed with saline solution, fixed in 10% neutral formalin buffered solution, and embedded in paraffin. The tissues were then cut into […] sections and stained with hematoxylin and eosin (H&E) to measure cell size (˜100 cells/mouse) by ImageJ software (NIH).

A short description of experiment [2]: Cohort 2: oral glucose tolerance test (OGTT). Type of experiment: in vivo, male C57BL/6 mice. The note with it: sc every three days, avasimibe 20 mg/kg BW; D-glucose 2 g/kg BW oral after 6 h fast. The protocol:
as §1, with “water. Mice were fasted for 6 hrs (07:00-13:00) prior to oral administration of D-glucose (2 g/kg BW). Tail blood samples were obtained before (at 0) and at 15, 30, 60, 90 and 120 minutes after glucose challenge for the measurement of blood glucose concentration using a CONTOUR® NEXT glucometer (Ascensia Diabetes Care, Parsippany, NJ, USA).” for “water.”

Experiment [3] is classed as in vivo, male C57BL/6 mice. The arrangement: Plasma Cholesterol / Plasma CE (cholesteryl ester): unit not given here. To be noted: mean±SEM, n=10. The protocol: (§2) Cohort 1: The first set of animal study was conducted at Nonclinical Research Institute, ChemOn Inc., and experimental procedures were approved by Institutional Animal Care and Use Committee (serial number 2021-09-007). Eight-week-old male C57BL/6 mice were purchased (Orient Bio Inc., Republic of Korea). After 2-week acclimation, the mice were fed with high-fat (HF) diet (cat #: D12492, Research Diets Inc.) for 12 weeks to develop DIO. These mice were then randomly assigned to control, avasimibe, semaglutide, and combination groups. Avasimibe solution was prepared for making the final concentration of avasimibe at 10 mg/kg BW, as described in Y. Zhu, S. Q. Kim, Y. Zhang, Q. Liu, K. H. Kim, Pharmacological inhibition of acyl-coenzyme A:cholesterol acyltransferase alleviates obesity and insulin resistance in diet-induced obese mice by regulating food intake, Metabolism 123 (2021) 154861, which is incorporated herein by reference. Semaglutide stock solution prepared in DMSO (1 mg/ml) was diluted with PBS for the final concentration of 0.04 mg/kg BW. The drug solution or the vehicle solution at a volume of 10 μl/g BW was injected to the mice sc daily for the indicated days.
Body composition (e.g., fat mass, lean mass, free water, and total water) changes were assessed right before sacrificing the second cohort of mice using EchoMRI (Echo Medical Systems). Blood samples were obtained after fasting for 3h, frozen and stored until analysis. Aspartate transaminase (AST), alanine aminotransferase (ALT), glucose, triglycerides (TG), high-density lipoprotein (HDL-C) and low-density lipoprotein cholesterol (LDL-C) were also measured (AU680 Chemistry Analyzer, Beckman Coulter). The levels of serum leptin (cat #: ab100718, Abcam) and insulin (cat #: ab277390, Abcam) were determined by enzyme-linked immunosorbent assay kit and cholesterol/CE (cat #: ab65359, Abcam) was determined by an enzymatic assay according to the manufacturers' instructions.

The conditions of experiment [4]: daily intraperitoneal (ip) 20 mg/kg BW avasimibe for 14 day; cited from earlier work.
Experiment [5] is described as follows: Cohort 2: sc administration every three days for 23 days in moderately obese DIO mice, body weight and food intake. To be noted: for mean body weight loss, % of the starting body weight: sc every three days for 23 days, avasimibe 20 mg/kg BW, HF diet. Format: in vivo, male C57BL/6 mice. The protocol:
as §1, with “water. To validate the impact of the combined treatment of semaglutide and avasimibe in DIO mice and to simulate a weekly semaglutide regimen for humans, we utilized Cohort 2 mice (FIG. 2A). On day 1, the average body weight of the mice was recorded as 37.37±3.58 grams. Throughout the treatment period, the mice in the vehicle group continued to gain weight, reaching an average body weight of 41.58±4.74 grams, representing a […] increase from the starting body weight (FIG. 2B). […] Specifically, the mean body weight losses were 0.82%, 8.56%, and 14.89% of the starting body weight for the mice treated with avasimibe, semaglutide, and the combination of both drugs, respectively (FIG. 2C).” for “water.”

Experiment [6] can be described thus: Cohort 1: daily sc administration in morbidly obese DIO mice, body weight, food intake, organ weight. Type of experiment: in vivo, male C57BL/6 mice. The note with it: for mean body weight change, % of starting body weight: initial 4-week period (day 28), avasimibe 10 mg/kg BW, semaglutide 0.04 mg/kg BW, HF diet. The protocol:
as §2
Cohort 1 mice were used to investigate whether combined treatment with semaglutide and a lower dose avasimibe compared to single semaglutide injection in morbidly obese mice (FIG. 1A). On the first day of the experiment, the average body weight of the mice was recorded as 48.84±2.26 grams (FIG. 1B). […] Mice in the vehicle control and avasimibe groups were sacrificed after additional 16 days of treatment (FIG. 1A). Throughout the initial 4-week period, the mean body weight of the vehicle-treated animals increased by 1.2% compared to their starting body weight. In contrast, the mean body weight changes for mice treated with avasimibe, semaglutide, or the combination of both drugs were −6.29%, −21.66%, and −30.47% of their starting body weight, respectively (FIG. 1C). […] Y. Zhu, S. Q. Kim, Y. Zhang, Q. Liu, K. H. Kim, Pharmacological inhibition of acyl-coenzyme A:cholesterol acyltransferase alleviates obesity and insulin resistance in diet-induced obese mice by regulating food intake, Metabolism 123 (2021) 154861, which is incorporated herein by reference. Consequently, we increased the avasimibe dose to 20 mg/kg BW in the subsequent study involving the second cohort of mice. […] However, as the treatment regimen continued, food intake gradually returned to baseline levels, and the effect of semaglutide diminished around day 26. […] To investigate potential toxic effects of the combination treatment on the liver, we measured plasma ALT and AST levels.

Setting [7] is: Day 43, daily sc avasimibe 10 mg/kg BW.
The mark [8] stands for this setting: Day 29, daily sc semaglutide 0.04 mg/kg BW with or without avasimibe 10 mg/kg BW.

`CC(C)c1cc(C(C)C)c(CC(=O)NS(=O)(=O)Oc2c(C(C)C)cccc2C(C)C)c(C(C)C)c1` [Avasimibe, avasimibe]: in experiment [1], the “percentage of large adipocytes (20,001-100,000 μm^2) compared to vehicle group” value is “lower percentage” and the “percentage of small adipocytes (5,001-10,000 μm^2) compared to vehicle group” value is “significantly higher percentage”. Further, the “glucose tolerance in OGTT” value in experiment [2] was “did not enhance glucose tolerance”. In experiment [3] (setting [7]), the “Plasma Glucose” value is listed as 139.7 ± 6.32 mg/dL, the “Plasma HDL” value came out at 35.13 ± 1.14 mg/dL, the “Plasma Insulin” value is on record as 1.43 ± 0.29 mIU/mL and the “Plasma LDL” value is 7.14 ± 0.46 mg/dL. Moreover, in experiment [3] (setting [7]), the “Plasma Leptin” value is reported as 6.72 ± 1.40 pg/mL and the “Plasma TG (triglyceride)” value was found to be 33.80 ± 2.09 mg/dL. In addition, in experiment [4], the “reduction in body weight” value is 24%. Also, the “mean body weight loss, % of the starting body weight” value in experiment [5] (semaglutide 0.04 mg/kg BW) was found to be 0.82%. In experiment [6] (daily sc), the “mean body weight change, % of starting body weight” value was −6.29%.
For semaglutide, the “percentage of large adipocytes (40,001-100,000 μm^2) compared to vehicle group” value in experiment [1] is “lower percentage”. Further, in experiment [3] (setting [8]), the “Plasma CE (cholesteryl ester)” value amounted to 7.071 ± 0.240, the “Plasma Cholesterol” value worked out at 8.055 ± 0.292, the “Plasma Glucose” value is reported as 121.73 ± 6.26 mg/dL and the “Plasma HDL” value came out at 37.02 ± 1.14 mg/dL. In experiment [3] (setting [8]), the “Plasma Insulin” value is reported as 0.41 ± 0.07 mIU/mL, the “Plasma LDL” value was 5.05 ± 0.60 mg/dL, the “Plasma Leptin” value worked out at 2.99 ± 0.65 pg/mL and the “Plasma TG (triglyceride)” value is recorded as 21.60 ± 1.38 mg/dL. Further, in experiment [5] (semaglutide 0.04 mg/kg BW), the “mean body weight loss, % of the starting body weight” value was 8.56%. Moreover, the “time for food intake to recover after each administration” value in experiment [5] (sc every three days, semaglutide 0.04 mg/kg BW) was at most 48 h. Further, in experiment [5] (sc every three days, by the seventh administration), the “food intake by day 22, versus vehicle group” value is “surpass that of the vehicle group”. Also, the “day around which the effect on food intake diminished” value in experiment [6] (daily sc semaglutide 0.04 mg/kg BW) is about 26 days. For the same compound, the “mean body weight change, % of starting body weight” value in experiment [6] (daily sc) is on record as −21.66%. Besides, the “food intake compared to vehicle or avasimibe alone” value in experiment [6] (daily sc, early treatment period) is listed as “rapid suppression of food intake”.
